Source: ChEMBL document CHEMBL1201862, “PubChem BioAssay data set” (2004)
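Each compound was tested at five concentrations against cells in 96-well plates for 48 hours. GI50: concentration for 50% inhibition of growth.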 The source made the active and inactive calls. Rule as the data show it: active = GI50 up to about 1.1 µM and inactive = higher. Residues, ends and D or L forms follow the SMILES beside them.

Tests used:
Assay in all cases: NCI tumour cell line growth inhibition, 48 h
HCC 2998 = tested on: HCC 2998
SR = tested on: SR
SNB-19 = tested on: SNB-19
M14 = tested on: M14
Malme-3M = tested on: Malme-3M
HCT-15 = tested on: HCT-15
TK-10 = tested on: TK-10
KM12 = tested on: KM12
SF-268 = tested on: SF-268
SK-OV-3 = tested on: SK-OV-3
RXF 393 = tested on: RXF 393
NCI-H522 = tested on: NCI-H522
HL-60 = tested on: HL-60
SK-MEL-28 = tested on: SK-MEL-28
SNB-75 = tested on: SNB-75
HOP-92 = tested on: HOP-92
PC-3 = tested on: PC-3
Hs-578T = tested on: Hs-578T
CAKI-1 = tested on: CAKI-1
MDA-N = tested on: MDA-N

Row | Compound | GI50 (HCC 2998) | GI50 (SR) | GI50 (SNB-19) | GI50 (M14) | GI50 (Malme-3M) | GI50 (HCT-15) [µM] | GI50 (TK-10) | GI50 (KM12) | GI50 (SF-268) | GI50 (SK-OV-3) | GI50 (RXF 393) | GI50 (NCI-H522) | GI50 (HL-60) | GI50 (SK-MEL-28) | GI50 (SNB-75) | GI50 (HOP-92) | GI50 (PC-3) | GI50 (Hs-578T) | GI50 (CAKI-1) | GI50 (MDA-N)
1 | C[N+](C)(C)CC1CCC/C1=N/O (centres undefined) | > 100 µM (inactive) | 27.7 µM (inactive) | > 100 µM (inactive) | > 100 µM (inactive) | > 100 µM (inactive) | 20 | > 100 µM (inactive) | > 100 µM (inactive) | > 100 µM (inactive) | > 100 µM (inactive) | 37.1 µM (inactive) | > 100 µM (inactive) | 20.1 µM (inactive) | > 100 µM (inactive) | > 100 µM (inactive) | > 100 µM (inactive) |  |  |  | 
2 | CCCCC(CCCC)=NNC(=S)SC | 15.4 µM (inactive) |  | 24.3 µM (inactive) | 17.3 µM (inactive) | 13.1 µM (inactive) | 34.2 | 17 µM (inactive) |  | 34.3 µM (inactive) | > 100 µM (inactive) | 65.3 µM (inactive) | 17.1 µM (inactive) | 20.7 µM (inactive) | 37.2 µM (inactive) | 27.5 µM (inactive) | 38.6 µM (inactive) | 40.1 µM (inactive) | 44.2 µM (inactive) |  | 
3 | COC(=O)C1CC(=O)CCC1c1ccccc1 (centres undefined) | > 100 µM (inactive) | > 100 µM (inactive) | > 100 µM (inactive) | > 100 µM (inactive) | > 100 µM (inactive) | > 100 | > 100 µM (inactive) | > 100 µM (inactive) | > 100 µM (inactive) | > 100 µM (inactive) |  | > 100 µM (inactive) | > 100 µM (inactive) | > 100 µM (inactive) | > 100 µM (inactive) | > 100 µM (inactive) |  |  | > 100 µM (inactive) | 
4 | O=C1/C(=N/c2ccccc2)Oc2cc(O)ccc21 | > 100 µM (inactive) | > 100 µM (inactive) | > 100 µM (inactive) | > 100 µM (inactive) | > 100 µM (inactive) | > 100 | > 100 µM (inactive) | > 100 µM (inactive) | > 100 µM (inactive) | > 100 µM (inactive) | > 100 µM (inactive) | > 100 µM (inactive) |  | > 100 µM (inactive) | > 100 µM (inactive) |  | > 100 µM (inactive) |  | > 100 µM (inactive) | > 100 µM (inactive)
5 | NCCCNCCCCN(CCCN)/[N+]([O-])=N\O | > 100 µM (inactive) | 28.6 µM (inactive) | > 100 µM (inactive) | > 100 µM (inactive) | > 100 µM (inactive) | > 100 |  | > 100 µM (inactive) | > 100 µM (inactive) |  | > 100 µM (inactive) |  | > 100 µM (inactive) | > 100 µM (inactive) | 89.3 µM (inactive) | > 100 µM (inactive) |  |  | > 100 µM (inactive) | 
6 | CCOP(=O)(/C=C\n1ccc(N)nc1=O)OCC |  |  | > 100 µM (inactive) | > 100 µM (inactive) |  | > 100 | > 100 µM (inactive) | > 100 µM (inactive) | > 100 µM (inactive) | > 100 µM (inactive) | > 100 µM (inactive) | 47.4 µM (inactive) | > 100 µM (inactive) | > 100 µM (inactive) | > 100 µM (inactive) |  | > 100 µM (inactive) | 0.349 µM (active) | > 100 µM (inactive) | > 100 µM (inactive)
7 | ClCCC[Si]12OCCN(CCO1)CCO2 | > 100 µM (inactive) | > 100 µM (inactive) | > 100 µM (inactive) |  | > 100 µM (inactive) |  | > 100 µM (inactive) | > 100 µM (inactive) | > 100 µM (inactive) | > 100 µM (inactive) | > 100 µM (inactive) | > 100 µM (inactive) | > 100 µM (inactive) | > 100 µM (inactive) | > 100 µM (inactive) | > 100 µM (inactive) |  |  | > 100 µM (inactive) | 
8 | c1ccc2c(c1)nc1n2sc2nc3ccccc3n21 | > 100 µM (inactive) | > 100 µM (inactive) |  | > 100 µM (inactive) |  | > 100 | > 100 µM (inactive) | > 100 µM (inactive) | > 100 µM (inactive) | > 100 µM (inactive) |  | 34.9 µM (inactive) | > 100 µM (inactive) | > 100 µM (inactive) |  | > 100 µM (inactive) | > 100 µM (inactive) | > 100 µM (inactive) | > 100 µM (inactive) | 
9 | Cc1c(-c2cc(-c3ccccc3)n[nH]c2=O)c2ccccc2n1C | > 100 µM (inactive) | > 100 µM (inactive) | > 100 µM (inactive) | > 100 µM (inactive) | > 100 µM (inactive) | > 100 | > 100 µM (inactive) | > 100 µM (inactive) | > 100 µM (inactive) | > 100 µM (inactive) | > 61.7 µM (inactive) | > 100 µM (inactive) | > 100 µM (inactive) | > 100 µM (inactive) | > 100 µM (inactive) | > 100 µM (inactive) |  |  | > 100 µM (inactive) | 
10 | C=C1C(OC(=O)/C=C/c2ccccc2)CC(OC(C)=O)C2(C)C1CC1CC(OC(C)=O)C(C)=C(C(OC(C)=O)C2OC(C)=O)C1(C)C (centres undefined) | 7.71 µM (inactive) | 3.97 µM (inactive) | > 100 µM (inactive) | > 100 µM (inactive) | > 100 µM (inactive) | 5.41 | > 100 µM (inactive) | 8.59 µM (inactive) | > 100 µM (inactive) | > 100 µM (inactive) |  | > 100 µM (inactive) | 2.07 µM (inactive) |  | > 100 µM (inactive) | > 100 µM (inactive) |  |  | > 100 µM (inactive) | 
11 | C=C1C(=O)O[C@H]2C1C[C@@H](O)[C@@]1(C)OC1CC[C@@]1(C)O[C@H]21 (some centres undefined) | 15.2 µM (inactive) | 14.1 µM (inactive) | > 100 µM (inactive) | 16.3 µM (inactive) | 11.7 µM (inactive) | 14.9 | 17.8 µM (inactive) | 20.6 µM (inactive) | 48.1 µM (inactive) | > 100 µM (inactive) | 17.9 µM (inactive) | 5.62 µM (inactive) |  | 21.1 µM (inactive) | 74.1 µM (inactive) | 17.2 µM (inactive) | 27.2 µM (inactive) | 28.6 µM (inactive) | 16.7 µM (inactive) | 
12 | O=C1C2=Cc3ccccc3OC2(O)Oc2cc(O)ccc21 (centres undefined) | > 100 µM (inactive) |  |  | > 100 µM (inactive) | > 100 µM (inactive) | 97.7 | > 100 µM (inactive) | > 100 µM (inactive) | > 100 µM (inactive) | > 100 µM (inactive) | > 100 µM (inactive) |  |  | > 100 µM (inactive) | > 100 µM (inactive) | > 100 µM (inactive) | > 100 µM (inactive) |  | > 100 µM (inactive) | > 100 µM (inactive)
13 | CC(=O)NC(CO)C(=O)NC(Cc1ccc(O)cc1)C(=O)NCC(N)=O (stereo not drawn) (Ac-Ser-Tyr-Gly-NH2; configuration not given here) | > 100 µM (inactive) | > 100 µM (inactive) | > 100 µM (inactive) | > 100 µM (inactive) | > 100 µM (inactive) | > 100 | > 100 µM (inactive) | > 100 µM (inactive) | > 100 µM (inactive) | > 100 µM (inactive) | > 100 µM (inactive) | 74.5 µM (inactive) | > 100 µM (inactive) | > 100 µM (inactive) | > 100 µM (inactive) | > 100 µM (inactive) | > 100 µM (inactive) |  | > 100 µM (inactive) | > 100 µM (inactive)
